One series has as its system resting CD4+ T cells. Briefly: T cell activation (CD69 and CD25 expression, flow cytometry). Type of series: cell-based. The following applies: resting CD4+ T cells of healthy human donors (FIG. 2). As to the method:
(§1) Compound 18a was also tested for its impact on T cell activation and cytokine release. Peripheral blood mononuclear cells (PBMC) were isolated by Ficoll density gradient centrifugation (Histopaque, Sigma Aldrich) from buffy coats of three healthy human donors (San Diego Blood Bank). Resting CD4^+ T cells were subsequently isolated by negative selection using magnetic beads (Miltenyi Biotec). Cells were treated with compound 18a, or 50 ng/ml Phorbol myristate acetate (PMA) and 1 μM lonomycin, or Dynabeads Human T-Activator CD3/CD28 (ThermoFisher Scientific) at a bead-to-cell ratio of 1:1, or left untreated. Expression of the early and late activation markers CD69 and CD25 on CD4+ T cells was assessed by flow cytometry using a Phycoerythrin-labeled anti-CD69 antibody (BioLegend; Cat #310906) and an Allophycocyanin-labeled anti-CD25 antibody (BioLegend; Cat #302610). Cytokine expression levels in cultures of PBMC or resting CD4+ T cells were analyzed using the LEGENDplex Human Inflammation Panel 13-plex (BioLegend).

For another series, the system named is MOLM 13. Briefly: Cell viability (CellTiter-Glo), 6-day compound treatment. The class given is cell-based, Human. The conditions noted are these: for IC50: Homo sapiens, MOLM-13, 144 h. In short, it runs like this:
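Cells plated at 1700 per well, left overnight at 37° C./5% CO2, then exposed to 10-fold compound dilutions for 6 days […]. Viability by CellTiter-Glo luminescence; IC50 from nonlinear regression fit.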
(In ATP-based viability assays light output follows the ATP content of the culture.)

The test system of series [1] is cIAP1 degradation and p100 cleavage in JLat 10.6 cells. Description: cIAP1 degradation and p100 cleavage (western blot) with GFP expression. The class given is cell-based. The following applies: 24 hours, different concentrations (FIG. 4). As to the method: JLat 10.6 cells were treated with different concentrations of compound 18a for 24 hours. GFP expression indicating latency reversal was measured by flow cytometry. cIAP1 degradation and p100 cleavage were assessed by western blot using the antibodies AF8181 (R&D Systems) and #4882 (Cell Signaling Technology), respectively.
A general note: Immunoblotting shows a protein as a band on a membrane.

Series [2] in a line: Pharmacokinetic study in mice, snapshot PK. Type of series: in vivo. The conditions noted are these: female, C57BL/6J, mouse, plasma, ip, one hour after i.p. injection of 10 mg/kg. The essentials: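 Female C57BL/6J mice dosed i.p. at 10 mg/kg in 5% DMSO/10% Tween-80/85% water. Plasma from retro-orbital blood at 1 h post-dose, acetonitrile-extracted with indometacin internal standard, parent compound quantified by LC-MS/MS.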

Series [3] deals with PBMC or resting CD4+ T cells. Description: Cytokine release (LEGENDplex Human Inflammation Panel 13-plex). The class given is cell-based. The conditions noted are these: PBMC or resting CD4+ T cells of healthy human donors (FIG. 3). As to the method: as §1
A further series relates to NB-4. Description: Cell viability (CellTiter-Glo). Type of series: cell-based, Human. The conditions noted are these: for IC50: Homo sapiens.
The test system of the next series is SHP-77. Briefly: Cell viability (CellTiter-Glo), 6-day compound treatment. Type of series: cell-based, Human. How it is done:
(§2) The compound 18a was tested in 16 different cell lines. For 6-day compound treatment 1700 cells per well were plated in a 384-well plate (Corning #781098) and incubated overnight at 37° C./5% CO2. The following day, compounds in 10-fold dilutions were added to the plates and the plates were incubated for 6 days. Afterwards, 20 μL CellTiter-Glo reagent (Promega, #G7570) was added to each well outside of the incubator and the plates were read for luminescence on a Spark® multimode microplate reader (Tecan). Data was fit in GraphPad Prism 8 to a nonlinear regression curve to determine the IC50 of the compounds.

Another series deals with H69AR. Described as above. Type of series: cell-based, Human. How it is done:
as §2

For another series, the system named is MV411. Described as above. The class given is cell-based, Human. As to the method:
as §2

The test system of series [4] is latently infected cell line Jurkat 2D10. Description: Combination with other LRA, Bliss Independence model, GFP expression. Type of series: cell-based. The following applies: Jurkat 2D10, 48 hours, with JQ1, I-BET 151, Bryostatin, Ingenol-3-angelate. As to the method:
Compound 18a was also tested in combination with other LRA reagents for synergistic activation of the latently infected cell line Jurkat 2D10. Jurkat 2D10 cells were treated with combinations of compound 18a and BET inhibitors (JQ1, I-BET 151) or PKC agonists (Bryostatin, Ingenol-3-angelate) for 48 hours. Reversal of HW latency was evaluated by analyzing GFP expression using flow cytometry. Synergy was assessed with the Bliss Independence model where the observed effect of a combination of compounds f12 is compared to the expected effect E(f12) that is calculated based on the observed effects of the individual compounds f1 and f2 using the formula E(f12)=f1+J2−(f1*f2). The difference between the observed effect of the combined compounds (f12) and the expected combined effect of the two compounds E(f12) is given as the excess over Bliss score (EOB). An EOB value greater than 0 indicates synergy between the compounds.

The values that follow come from patent publication US12678509B2, “Inhibitor of apoptosis (IAP) protein antagonists” (Sanford Burnham Prebys Medical Discovery Institute, priority 2019, dated 2026).

Each structure is given as a SMILES string. Read-outs that look alike come from different tables or passages of the source. A value given as a limit tells only on which side of the number the result lay.

As usually defined, the IC50 is the midpoint of a concentration-inhibition curve. `CN[C@@H](C)C(=O)N[C@H]1CCS[C@H]2CC(C)(C)[C@@H](C(=O)N[C@H]3c4ccccc4C[C@H]3OCC#CC#CCO[C@@H]3Cc4ccccc4[C@@H]3NC(=O)[C@H]3N4C(=O)[C@@H](NC(=O)[C@H](C)NC)CCS[C@H]4CC3(C)C)N2C1=O` [Compound 18a, (2S)-1-{[(4S,7S,9aS)-74{(1S,2R)-2-[(6-{[(1S,2R)-1-({[(4S,7S,9aS)-8,8-Dimethyl-4-{[(2S)-2-(methylammonio)propanoyl]amino}-5-oxooctahydropyrrolo[2,1-b][1,3]thiazepin-7-yl]carbonyl}amino)-2,3-dihydro-1H-inden-2-yl]oxy}hexa-2,4-diyn-1-yl)oxy]-2,3-dihydro-1H-inden-1-yl}carbamoyl)-8,8-dimethyl-5-oxooctahydropyrrolo[2,1-b][1,3]thiazepinyl]amino}-N-methyl-1-oxopropan-2-ammonium dichloride]: the “activation of resting CD4+ T cells (CD69, CD25)” value in the series with resting CD4+ T cells was “did not induce activation of resting CD4+ T cells”. In addition, the half-inhibitory concentration (IC50) with MOLM 13 (read-out: IC50 6 d) is 10 to 100 nM; in the series with MOLM 13 (read-out: MOLM 13 Viability 6 d IC50), 10 to 100 nM; in the series on NB-4 (NB-4, 72 h, read-out: NB-4 Viability 72 h IC50), under 10 nM; with NB-4 (NB-4, 144 h, read-out: IC50 6 d), under 10 nM; with SHP-77 (Homo sapiens, SHP77, 144 h, read-out: IC50 6 d), under 100000 nM; with H69AR (Homo sapiens, 144 h, read-out: IC50 6 d) it was 1000 to 10000 nM. Also, in the series with MV411 (Homo sapiens, MV4-11, 144 h, read-out: IC50 6 d), the IC50 was in the range of 100 to 1000 nM. Also, the “Cell viability at max. concentration” value is given as “I (I<10%)” in the series on MOLM 13 (MOLM 13, 6 d); “I (I<10%)” in the series on NB-4 (NB-4, 6 d); “IV (IV<100%)” with SHP-77 (SHP-77, 6 d); “I (I<10%)” with H69AR (6 d); “I (I<10%)” in the series with MV411 (MV411, 6 d). Also, the “cIAP1 degradation and p100 cleavage” value in [1] is listed as “correlated with HW latency reversal”. This compound also came in with a concentration at 1 h in [2] of 3.52 µM. Also, the cytokine release entry in series [3] was “did not induce”. Also, in series [4], the “synergy with LRA compounds in reversal of HIV latency” value is recorded as “synergizes with the tested LRA compounds to reverse HW latency”.
